In ChEMBL document CHEMBL3046002, “Synthesis and antimicrobial activity of coumarin pyrazole pyrimidine 2,4,6(1H,3H,5H)triones and thioxopyrimidine4,6(1H,5H)diones” (2013):
In brackets after ≈: the same amount, converted by molar mass. Activity calls are given as the source filed them. The rule behind the calls is not given here.

Assays:
Escherichia coli = assay: Antimicrobial activity against Escherichia coli assessed as growth inhibition after 24 hr by broth dilution method; format: functional
Pseudomonas aeruginosa = assay: Antimicrobial activity against Pseudomonas aeruginosa assessed as growth inhibition after 24 hr by broth dilution method; format: functional
[1] = system: Staphylococcus epidermidis; assay: Antimicrobial activity against Staphylococcus epidermidis assessed as growth inhibition after 24 hr by broth dilution method; format: functional
Staphylococcus aureus = assay: Antimicrobial activity against Staphylococcus aureus assessed as growth inhibition after 24 hr by broth dilution method; format: functional
Aspergillus niger [2] = assay: Antimicrobial activity against Aspergillus niger assessed as diameter of growth inhibition zone at 100 ug/ml after 48 hr by agar cup bioassay; format: functional; conditions: read-out: DIZ
Klebsiella pneumoniae = assay: Antimicrobial activity against Klebsiella pneumoniae assessed as growth inhibition after 24 hr by broth dilution method; format: functional
Aspergillus niger [3] = assay: Antimicrobial activity against Aspergillus niger assessed as diameter of growth inhibition zone at 150 ug/ml after 48 hr by agar cup bioassay; format: functional; conditions: read-out: DIZ
Bacillus subtilis = assay: Antimicrobial activity against Bacillus subtilis assessed as growth inhibition after 24 hr by broth dilution method; format: functional
Aspergillus niger [4] = assay: Antimicrobial activity against Aspergillus niger assessed as growth inhibition zone after 48 hr by agar cup bioassay; format: functional, organism-based
Aspergillus niger [5] = assay: Antimicrobial activity against Aspergillus niger assessed as diameter of growth inhibition zone at 30 ug/ml after 48 hr by agar cup bioassay; format: functional; conditions: read-out: DIZ

| Structure (SMILES) | MIC (Escherichia coli) [µg/mL] | MIC (Pseudomonas aeruginosa) [µg/mL] | MIC [1] [µg/mL] | MIC (Staphylococcus aureus) [µg/mL] | zone of inhibition at 100 µg/mL (Aspergillus niger [2]) [mm] | MIC (Klebsiella pneumoniae) [µg/mL] | zone of inhibition at 150 µg/mL (Aspergillus niger [3]) [mm] | MIC (Bacillus subtilis) [µg/mL] | growth inhibition (GI) (Aspergillus niger [4]) | zone of inhibition at 30 µg/mL (Aspergillus niger [5]) [mm] |
| --- | --- | --- | --- | --- | --- | --- | --- | --- | --- | --- |
| O=C1NC(=O)C(=Cc2cn(-c3ccccc3)nc2-c2cc3cc(Br)ccc3oc2=O)C(=O)N1 | 600 (≈ 1190 µM) | 600 (≈ 1190 µM) | 150 (≈ 297 µM) | 150 (≈ 297 µM) | 14 | 150 (≈ 297 µM) | 20 | 150 (≈ 297 µM) |  |  |
| O=C1NC(=O)C(=Cc2cn(-c3ccccc3)nc2-c2cc3cc(Cl)ccc3oc2=O)C(=O)N1 | 150 (≈ 325 µM) | 150 (≈ 325 µM) | 150 (≈ 325 µM) | 150 (≈ 325 µM) |  | 150 (≈ 325 µM) |  | 150 (≈ 325 µM) | inactive |  |
| O=C1NC(=O)C(=Cc2cn(-c3ccccc3)nc2-c2cc3ccccc3oc2=O)C(=O)N1 | 300 (≈ 704 µM) | 150 (≈ 352 µM) | 300 (≈ 704 µM) | 300 (≈ 704 µM) |  | 150 (≈ 352 µM) |  | 300 (≈ 704 µM) | inactive |  |
| O=C1NC(=S)NC(=O)C1=Cc1cn(-c2ccccc2)nc1-c1cc2cc(Br)c(Br)cc2oc1=O | 150 (≈ 250 µM) | 150 (≈ 250 µM) | 300 (≈ 500 µM) | 150 (≈ 250 µM) |  | 150 (≈ 250 µM) |  | 150 (≈ 250 µM) | inactive |  |
| O=C1NC(=S)NC(=O)C1=Cc1cn(-c2ccccc2)nc1-c1cc2cc(Br)ccc2oc1=O | 300 (≈ 575 µM) | 300 (≈ 575 µM) | 300 (≈ 575 µM) | 600 (≈ 1150 µM) |  | 150 (≈ 288 µM) |  | 600 (≈ 1150 µM) | inactive |  |
| O=C1NC(=S)NC(=O)C1=Cc1cn(-c2ccccc2)nc1-c1cc2cc3ccccc3cc2oc1=O | 600 (≈ 1220 µM) | 150 (≈ 305 µM) | 300 (≈ 609 µM) | 150 (≈ 305 µM) |  | 150 (≈ 305 µM) |  | 300 (≈ 609 µM) | inactive |  |
| O=C1NC(=O)C(=Cc2cn(-c3ccccc3)nc2-c2cc3cc(Br)c(Br)cc3oc2=O)C(=O)N1 | 150 (≈ 257 µM) | 150 (≈ 257 µM) | 150 (≈ 257 µM) | 150 (≈ 257 µM) | 7 | 300 (≈ 514 µM) | 10 | 150 (≈ 257 µM) |  |  |
| O=C1NC(=O)C(=Cc2cn(-c3ccccc3)nc2-c2cc3cc4ccccc4cc3oc2=O)C(=O)N1 | 300 (≈ 630 µM) | 150 (≈ 315 µM) | 300 (≈ 630 µM) | 300 (≈ 630 µM) |  | 300 (≈ 630 µM) |  | 150 (≈ 315 µM) | inactive |  |
| O=C1NC(=O)C(=Cc2cn(-c3ccccc3)nc2-c2cc3cc(Cl)c(Cl)cc3oc2=O)C(=O)N1 | 300 (≈ 606 µM) | 150 (≈ 303 µM) | 300 (≈ 606 µM) | 300 (≈ 606 µM) |  | 150 (≈ 303 µM) |  | 300 (≈ 606 µM) | inactive |  |
| O=C1NC(=S)NC(=O)C1=Cc1cn(-c2ccccc2)nc1-c1cc2ccccc2oc1=O | 600 (≈ 1360 µM) | 300 (≈ 678 µM) | 150 (≈ 339 µM) | 150 (≈ 339 µM) |  | 150 (≈ 339 µM) |  | 300 (≈ 678 µM) | inactive |  |
| OC(Cn1cncn1)(Cn1cncn1)c1ccc(F)cc1F [FLUCONAZOLE] |  |  |  |  |  |  |  |  |  | 30 |
| O=C1NC(=S)NC(=O)C1=Cc1cn(-c2ccccc2)nc1-c1cc2cc(Cl)c(Cl)cc2oc1=O | 600 (≈ 1170 µM) | 300 (≈ 587 µM) | 300 (≈ 587 µM) | 150 (≈ 293 µM) |  | 150 (≈ 293 µM) |  | 300 (≈ 587 µM) | inactive |  |
| O=C1NC(=S)NC(=O)C1=Cc1cn(-c2ccccc2)nc1-c1cc2cc(Cl)ccc2oc1=O | 300 (≈ 629 µM) | 150 (≈ 315 µM) | 600 (≈ 1260 µM) | 300 (≈ 629 µM) |  | 150 (≈ 315 µM) |  | 150 (≈ 315 µM) | inactive |  |
| O=C(O)c1cn(C2CC2)c2cc(N3CCNCC3)c(F)cc2c1=O [CIPROFLOXACIN] | 20 (≈ 60.4 µM) |  | 22 (≈ 66.4 µM) |  |  | 25 (≈ 75.4 µM) |  | 24 (≈ 72.4 µM) |  |  |
